# Measurements: patent US20210323977A1, “PYRROLIDINYL AMIDE COMPOUNDS FOR THE TREATMENT OF AUTOIMMUNE DISEASE” (Hoffmann-La Roche Inc., priority 2018, published 2021)
# Biological target: T1, human TLR8 (Homo sapiens, UniProt Q9NR97)
# T1 sequence (Q9NR97 27-1041): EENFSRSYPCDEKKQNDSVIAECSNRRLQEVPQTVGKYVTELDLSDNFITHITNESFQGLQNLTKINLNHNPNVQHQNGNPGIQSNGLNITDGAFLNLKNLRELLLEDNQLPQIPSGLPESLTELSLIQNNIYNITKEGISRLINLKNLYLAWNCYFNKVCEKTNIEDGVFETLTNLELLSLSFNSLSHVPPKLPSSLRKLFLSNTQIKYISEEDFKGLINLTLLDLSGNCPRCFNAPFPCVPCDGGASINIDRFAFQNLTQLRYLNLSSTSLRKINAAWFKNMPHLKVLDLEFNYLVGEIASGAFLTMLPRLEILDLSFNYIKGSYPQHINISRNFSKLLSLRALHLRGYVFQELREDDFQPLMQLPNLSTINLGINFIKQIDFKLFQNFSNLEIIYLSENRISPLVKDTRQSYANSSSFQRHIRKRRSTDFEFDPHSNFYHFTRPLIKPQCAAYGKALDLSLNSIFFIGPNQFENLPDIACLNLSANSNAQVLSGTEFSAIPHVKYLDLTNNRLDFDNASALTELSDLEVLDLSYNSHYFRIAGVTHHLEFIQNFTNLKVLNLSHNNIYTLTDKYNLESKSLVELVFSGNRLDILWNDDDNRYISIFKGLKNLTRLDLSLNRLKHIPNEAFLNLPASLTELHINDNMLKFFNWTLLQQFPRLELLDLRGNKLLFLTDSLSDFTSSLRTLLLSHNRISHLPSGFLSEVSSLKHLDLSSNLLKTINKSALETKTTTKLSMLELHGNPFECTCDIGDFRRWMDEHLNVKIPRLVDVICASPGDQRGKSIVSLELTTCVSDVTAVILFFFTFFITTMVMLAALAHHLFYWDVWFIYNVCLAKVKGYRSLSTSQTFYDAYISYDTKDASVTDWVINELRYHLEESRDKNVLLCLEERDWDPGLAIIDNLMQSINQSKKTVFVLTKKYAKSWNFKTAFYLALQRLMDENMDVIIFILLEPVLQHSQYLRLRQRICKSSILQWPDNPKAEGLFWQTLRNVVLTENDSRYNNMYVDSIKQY
# Experiment: HEK293-Blue-hTLR-8 cells assay
# Format: cell-based
# Conditions: HEK293-Blue-hTLR8 cells, SEAP reporter, R848 stimulation, 20 hrs
# Excerpt: HEK293-Blue-hTLR-8 Cells Assay:
# A stable HEK293-Blue-hTLR-8 cell line was purchased from InvivoGen (Cat. #: hkb-htlr8, San Diego, Calif., USA). These cells were originally designed for studying the stimulation of human TLR8 by monitoring the activation of NF-κB. A SEAP (secreted embryonic alkaline phosphatase) reporter gene was placed under the control of the IFN-β minimal promoter fused to five NF-κB and AP-1-binding sites. The SEAP was induced by activating NF-κB and AP-1 via stimulating HEK-Blue hTLR8 cells with TLR8 ligands. Therefore the reporter expression was declined by TLR8 antagonist under the stimulation of a ligand, such as R848, for incubation of 20 hrs. The cell culture supernatant SEAP reporter activity was determined using QUANTI-Blue™ kit (Cat. #: rep-qb1, Invivogen, San Diego, Ca, USA) at a wavelength of 640 nm, a detection medium that turns purple or blue in the presence of alkaline phosphatase.
# HEK293-Blue-hTLR8 cells were incubated at a density of 250,000-450,000 cells/mL in a volume of 170 μL in a 96-well plate in Dulbecco's Modified Eagle's medium (DMEM) containing 4.5 g/L glucose, 50 U/mL penicillin, […], […], 2 mM L-glutamine, 10% (v/v) heat-inactivated fetal bovine serum with addition of 20 μL test compound in a serial dilution in the presence of final DMSO at 1% and 10 sL of 60 uM R848 in above DMEM, perform incubation under 37° C. in a CO2 incubator for 20 hrs. Then 20 μL of the supernatant from each well was incubated with 180 sL Quanti-blue substrate solution at 37° C. for 2 hrs and the absorbance was read at 620˜655 nm using a spectrophotometer. The signalling pathway that TLR8 activation leads to downstream NF-κB activation has been widely accepted, and therefore similar reporter assay was modified for evaluating TLR8 antagonist.
row,Structure (SMILES),IC50
1,"O=C(NC1CC2COCC(C1)N2)C1CN(c2ccc(C(F)(F)F)c3nccnc23)CC12CC2 (stereo not shown) [Example 6, N-(3-oxa-9-azabicyclo[3.3.1]nonan-7-yl)-5-[8-(trifluoromethyl)quinoxalin-5-yl]-5-azaspiro[2.4]heptane-7-carboxamide]",0.291 µM
2,"O=C(NC1C2CCCC1CNC2)C1CN(c2ccc(C(F)(F)F)c3nccnc23)CC12CC2 (stereo not shown) [Example 8, N-(3-azabicyclo[3.3.1]nonan-9-yl)-5-[8-(trifluoromethyl)quinoxalin-5-yl]-5-azaspiro[2.4]heptane-7-carboxamide]",0.216 µM
3,"O=C(NC1CC2CCCC(C1)N2)C1CN(c2ccc(C(F)(F)F)c3nccnc23)CC12CC2 (stereo not shown) [Example 10, N-(9-azabicyclo[3.3.1]nonan-3-yl)-5-[8-(trifluoromethyl)quinoxalin-5-yl]-5-azaspiro[2.4]heptane-7-carboxamide]",0.245 µM
4,"CN1CCC(NC(=O)C2CN(c3ccc(C(F)(F)F)c4nccnc34)CC23CC3)CC1 (stereo not shown) [Example 11, N-(1-methyl-4-piperidyl)-5-[8-(trifluoromethyl)quinoxalin-5-yl]-5-azaspiro[2.4]heptane-7-carboxamide]",0.03 µM
5,"O=C(NC1C2CCC1CNC2)C1CN(c2ccc(C(F)(F)F)c3nccnc23)CC12CC2 (stereo not shown) [Example 12, N-(3-azabicyclo[3.2.1]octan-8-yl)-5-[8-(trifluoromethyl)quinoxalin-5-yl]-5-azaspiro[2.4]heptane-7-carboxamide]",0.227 µM
6,"N#Cc1ccc(N2CC(C(=O)NCC3CNCCO3)C3(CC3)C2)c2nccnc12 (stereo not shown) [Example 13, 5-(8-Cyanoquinoxalin-5-yl)-N-(morpholin-2-ylmethyl)-5-azaspiro[2.4]heptane-7-carboxamide]",0.048 µM
7,"O=C(NC1CC2CNCC(C2)C1)C1CN(c2ccc(C(F)(F)F)c3nccnc23)CC12CC2 (stereo not shown) [Example 15, N-(3-azabicyclo[3.3.1]nonan-7-yl)-5-[8-(trifluoromethyl)quinoxalin-5-yl]-5-azaspiro[2.4]heptane-7-carboxamide]",0.156 µM
8,"C[C@H]1CN(c2ccc(C#N)c3ncccc23)C[C@@H]1C(=O)NC1CCN(C)CC1 [Example 16, (3R,4R)-1-(8-cyano-5-quinolyl)-4-methyl-N-(1-methyl-4-piperidyl)pyrrolidine-3-carboxamide]",0.072 µM
9,"CN1CCC(NC(=O)C2CN(c3ccc(C#N)c4ncccc34)CC2C(F)(F)F)CC1 (stereo not shown) [Example 18, 1-(8-Cyano-5-quinolyl)-N-(1-methyl-4-piperidyl)-4-(trifluoromethyl)pyrrolidine-3-carboxamide]",0.075 µM
10,"CN1CC(NC(=O)C2CN(c3ccc(C(F)(F)F)c4nccnc34)CC23CC3)C2(CC2)C1 (stereo not shown) [Example 20, N-(5-methyl-5-azaspiro[2.4]heptan-7-yl)-5-[8-(trifluoromethyl)quinoxalin-5-yl]-5-azaspiro[2.4]heptane-7-carboxamide]",0.369 µM
11,"O=C(NC1CC2CNCC2C1)C1CN(c2ccc(C(F)(F)F)c3nccnc23)CC12CC2 (stereo not shown) [Example 21, N-(1,2,3,3a,4,5,6,6a-octahydrocyclopenta[c]pyrrol-5-yl)-5-[8-(trifluoromethyl)quinoxalin-5-yl]-5-azaspiro[2.4]heptane-7-carboxamide]",0.077 µM
12,"NC1CC2(C1)CC(NC(=O)C1CN(c3ccc(C(F)(F)F)c4nccnc34)CC13CC3)C2 (stereo not shown) [Example 22, N-(6-aminospiro[3.3]heptan-2-yl)-5-[8-(trifluoromethyl)quinoxalin-5-yl]-5-azaspiro[2.4]heptane-7-carboxamide]",0.065 µM
13,"O=C(NC1CC2CCC(C1)N2)C1CN(c2ccc(C(F)(F)F)c3nccnc23)CC12CC2 (stereo not shown) [Example 23, N-(8-azabicyclo[3.2.1]octan-3-yl)-5-[8-(trifluoromethyl)quinoxalin-5-yl]-5-azaspiro[2.4]heptane-7-carboxamide]",0.243 µM
14,"N[C@H]1CC[C@H](NC(=O)C2CN(c3ccc(C(F)(F)F)c4nccnc34)CC23CC3)CC1 (stereo partly shown) [Example 24, N-(4-aminocyclohexyl)-5-[8-(trifluoromethyl)quinoxalin-5-yl]-5-azaspiro[2.4]heptane-7-carboxamide]",0.175 µM
15,"C[C@@H]1CN(c2ccc(C(F)(F)F)c3nccnc23)C[C@H]1C(=O)NC1CCN(C)CC1 [Example 25, (3S,4S)-4-Methyl-N-(1-methyl-4-piperidyl)-1-[8-(trifluoromethyl)quinoxalin-5-yl]pyrrolidine-3-carboxamide]",0.152 µM
16,"CN(C)CC1CC(NC(=O)C2CN(c3ccc(C(F)(F)F)c4nccnc34)CC23CC3)C1 (stereo not shown) [Example 26, N-[3-[(dimethylamino)methyl]cyclobutyl]-5-[8-(trifluoromethyl)quinoxalin-5-yl]-5-azaspiro[2.4]heptane-7-carboxamide]",0.044 µM
17,"C[C@H]1CN(c2ccc([N+](=O)[O-])c3ncccc23)C[C@@H]1C(=O)NC1CCN(C)CC1 [Example 27, (3R,4R)-4-Methyl-N-(1-methyl-4-piperidyl)-1-(8-nitro-5-quinolyl)pyrrolidine-3-carboxamide]",0.052 µM
18,"NC1CC(CNC(=O)C2CN(c3ccc(C(F)(F)F)c4nccnc34)CC23CC3)C1 (stereo not shown) [Example 31, N-[(3-aminocyclobutyl)methyl]-5-[8-(trifluoromethyl)quinoxalin-5-yl]-5-azaspiro[2.4]heptane-7-carboxamide]",0.167 µM
19,"Cc1ccc(N2C[C@H](C(=O)NC3CCN(C)CC3)[C@@H](C)C2)c2nccnc12 [Example 33, (3R,4R)-4-Methyl-N-(1-methyl-4-piperidyl)-1-(8-methylquinoxalin-5-yl)pyrrolidine-3-carboxamide]",0.075 µM
20,"O=C(NC1CC2(CCNCC2)C1)C1CN(c2ccc(C(F)(F)F)c3nccnc23)CC12CC2 (stereo not shown) [Example 34, N-(7-azaspiro[3.5]nonan-2-yl)-5-[8-(trifluoromethyl)quinoxalin-5-yl]-5-azaspiro[2.4]heptane-7-carboxamide]",0.437 µM
21,"N#Cc1ccc(N2C[C@H](C(=O)NC3CCN(C4CCNCC4)CC3)[C@@H](C(F)(F)F)C2)c2nccnc12 [Example 35, (3R,4R)-1-(8-Cyanoquinoxalin-5-yl)-N-[1-(4-piperidyl)-4-piperidyl]-4-(trifluoromethyl)pyrrolidine-3-carboxamide]",0.038 µM
22,"N[C@@H]1C[C@H](NC(=O)C2CN(c3ccc(C(F)(F)F)c4nccnc34)CC23CC3)[C@@H]2C[C@@H]21 (stereo partly drawn) [Example 36, N-[(1R,2S,4R,5S)-4-amino-2-bicyclo[3.1.0]hexanyl]-5-[8-(trifluoromethyl)quinoxalin-5-yl]-5-azaspiro[2.4]heptane-7-carboxamide]",0.251 µM
23,"NC1CC(NC(=O)C2CN(c3ccc(C(F)(F)F)c4nccnc34)CC23CC3)C1 (stereo not shown) [Example 38, N-(3-Aminocyclobutyl)-5-[8-(trifluoromethyl)quinoxalin-5-yl]-5-azaspiro[2.4]heptane-7-carboxamide]",0.172 µM
24,"N[C@H]1CC[C@@H](NC(=O)C2CN(c3ccc(C(F)(F)F)c4nccnc34)CC23CC3)CC1 (stereo partly shown) [Example 39, N-(4-Aminocyclohexyl)-5-[8-(trifluoromethyl)quinoxalin-5-yl]-5-azaspiro[2.4]heptane-7-carboxamide]",0.447 µM
25,"C[C@H]1CN(c2ccc(C#N)n3nccc23)C[C@@H]1C(=O)NC1CCN(C)CC1 [Example 44, (3R,4R)-1-(7-cyanopyrazolo[1,5-a]pyridin-4-yl)-4-methyl-N-(1-methyl-4 piperidyl)pyrrolidine-3-carboxamide]",0.404 µM
